In US8658383B2, “Sweet taste receptor-expressing construct, cell body expressing the same, and utilization thereof” (T. Hasegawa Co., Ltd., priority 2009, dated 2014):
One block for each compound: values may come before it.

How the values were obtained:
[1] = target: T1, human sweet taste receptor (hT1R2+hT1R3) (Homo sapiens, UniProt Q7RTX0+Q8TE23); assay: Automated fluorescent calcium imaging (Fluo-4 AM, FlexStation 3) of cultured cell strain (A); format: cell-based; parameters: The sweet taste receptor subunits T1R2 and T1R3 include an entire part of each subunit
T1 sequence (Q8TE23 20-839): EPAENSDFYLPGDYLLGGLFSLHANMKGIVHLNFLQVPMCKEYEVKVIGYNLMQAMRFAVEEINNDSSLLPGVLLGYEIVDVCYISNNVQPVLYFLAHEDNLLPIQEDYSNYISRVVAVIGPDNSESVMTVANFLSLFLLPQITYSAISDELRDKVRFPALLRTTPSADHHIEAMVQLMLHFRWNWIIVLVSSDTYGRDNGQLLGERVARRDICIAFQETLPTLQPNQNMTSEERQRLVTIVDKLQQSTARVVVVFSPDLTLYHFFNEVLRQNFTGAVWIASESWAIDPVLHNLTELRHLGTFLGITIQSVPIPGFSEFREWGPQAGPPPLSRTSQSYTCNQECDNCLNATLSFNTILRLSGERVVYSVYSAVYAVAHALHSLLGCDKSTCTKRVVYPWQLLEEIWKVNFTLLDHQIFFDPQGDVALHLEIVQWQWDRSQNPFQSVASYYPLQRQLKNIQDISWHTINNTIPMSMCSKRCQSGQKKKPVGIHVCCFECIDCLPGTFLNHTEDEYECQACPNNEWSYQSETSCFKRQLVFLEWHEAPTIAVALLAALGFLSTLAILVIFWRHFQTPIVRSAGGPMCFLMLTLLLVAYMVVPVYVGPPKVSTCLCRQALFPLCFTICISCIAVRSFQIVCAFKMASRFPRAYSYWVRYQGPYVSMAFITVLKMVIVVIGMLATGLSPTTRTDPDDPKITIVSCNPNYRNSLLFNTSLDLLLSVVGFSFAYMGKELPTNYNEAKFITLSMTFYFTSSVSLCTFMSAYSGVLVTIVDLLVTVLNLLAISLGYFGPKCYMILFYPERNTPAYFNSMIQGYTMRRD
T1 sequence (Q7RTX0 21-852): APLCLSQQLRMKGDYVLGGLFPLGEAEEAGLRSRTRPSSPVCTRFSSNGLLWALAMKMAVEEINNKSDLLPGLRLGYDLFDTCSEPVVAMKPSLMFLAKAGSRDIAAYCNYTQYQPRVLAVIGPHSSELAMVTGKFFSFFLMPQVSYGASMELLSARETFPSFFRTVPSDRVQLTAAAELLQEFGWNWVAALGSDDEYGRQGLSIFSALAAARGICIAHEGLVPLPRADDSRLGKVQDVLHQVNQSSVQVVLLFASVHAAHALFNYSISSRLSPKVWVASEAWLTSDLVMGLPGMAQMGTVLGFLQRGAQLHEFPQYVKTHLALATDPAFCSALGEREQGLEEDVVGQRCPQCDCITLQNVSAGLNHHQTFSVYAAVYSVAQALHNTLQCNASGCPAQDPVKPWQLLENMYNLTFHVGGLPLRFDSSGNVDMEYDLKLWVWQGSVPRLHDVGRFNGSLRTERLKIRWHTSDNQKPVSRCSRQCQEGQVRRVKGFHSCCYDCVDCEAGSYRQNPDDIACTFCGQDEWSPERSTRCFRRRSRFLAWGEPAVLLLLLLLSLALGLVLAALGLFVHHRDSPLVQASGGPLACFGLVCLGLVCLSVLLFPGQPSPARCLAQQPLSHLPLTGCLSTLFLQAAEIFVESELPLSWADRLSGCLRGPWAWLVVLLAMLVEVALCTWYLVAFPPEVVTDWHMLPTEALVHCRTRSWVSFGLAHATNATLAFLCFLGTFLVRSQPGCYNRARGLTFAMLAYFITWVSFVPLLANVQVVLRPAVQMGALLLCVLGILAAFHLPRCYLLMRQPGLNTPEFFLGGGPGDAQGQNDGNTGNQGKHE
Protocol: Automated fluorescent imaging using FlexStation 3 (Molecular Devices) can be performed, for example, according to the following procedure.
First, cells are suspended in a low glucose ([…]) DMEM medium from which hygromycin B has been removed, and each 70 to 80 thousands of cells are seeded on each well of a 96-well plate (Corning, CellBIND Surface).
Then, after cultured at 37° C. for 24 hours, a medium is removed and replaced with a suitable amount of a HEPES (2-[4-(2-hydroxyethyl)-1-piperazinyl]ethanesulfonic acid) buffer, and a HEPES buffer containing a fluorescent calcium indicator (Fluo-4 AM attached to Molecular Devices, FLIPR Ca 4 Assay Kit) is further added. In order to facilitate transfer into cells, a fat-soluble acetoxymethyl group has been introduced into the fluorescent indicator Fluo-4 (excitation wavelength: 495 nm, fluorescent wavelength: 518 nm), and when it is added to a medium, it is easily taken into cells, and is hydrolyzed with an esterase in cells. Hydrolyzed Fluo-4 becomes difficult to be permeated through a cell membrane, and is diffused into cells to form a complex with calcium, emitting intense fluorescence. In a 96-well plate for fluorescent observation, there are a plastic bottom and a film bottom. Since a plate of the plastic bottom is satisfactory in adherability and growth of cells, it is used at a simultaneous assay using a multiplate reader for observing an entire well. However, since a plate of this plastic bottom is bad in transmission property of a UV wavelength, and inhibits transmission of excited light of Fura-2, Fluo-4 is used.
Then, after incubated at 27 to 37° C. for 30 to 60 minutes, by adding thereto a sweet taste substance at a particular concentration or a solution of a sweet taste substance and a substance to be tested, taste stimulation is performed at 27 to 37° C.
A physiological response of the cultured cell strain (A) to sucrose stimulation was analyzed by automated fluorescent imaging.
The cultured cell strain (A) prepared in Example 4 was trypsinized, and suspended in the DMEM medium, a cell density was measured, and each about 80 thousand cells were seeded on each well of a 96-well plate (Corning, CellBIND Surface).
After cultured at 37° C. for 24 hours, the medium was removed and replaced with 50 μl of a HEPES buffer, and 50 μl of a HEPES buffer containing a fluorescent calcium indicator (Fluo-4 AM attached to Molecular Devices, FLIPR Ca 4 Assay Kit) was further added. Then, this was incubated at 27° C. for 45 minutes to prepare cells to be subjected to automated fluorescent imaging.
Then, to the cells was added a HEPES buffer containing sucrose, so that a final concentration of sucrose became a concentration described in Table 1, and sucrose stimulation was performed at 27° C.
The vertical axis of FIG. 15 is a maximum of change (AF) in a fluorescent intensity between immediately after stimulation and 100 seconds after stimulation, that is, a response intensity of cells, and the horizontal axis indicates a sucrose concentration (mM) expressed by logarithm.
A physiological response of the cultured cell strain (A) to D-phenylalanine stimulation was analyzed by automated fluorescent imaging.

[2] = target: T1, human sweet taste receptor (hT1R2+hT1R3); assay: Fluorescent microscope calcium imaging (Fura-2 AM) of cultured cell strains (A) to (C); settings: cultured cell strain (A); Sucrose in a range of 20 mM to 1 M; FIG. 13
Protocol: Fluorescent calcium imaging using a fluorescent microscope can be performed according to the following procedure.
First, cells are suspended in a low glucose (1,000 mg/ml) DMEM medium, from which hygromycin B has been removed, and each 40 to 80 thousands cells are seeded on each well of a 96-well plate (Greiner, Lumox).
Then, after cultured at 37° C. for 24 to 48 hours, a medium is removed and is replaced with a suitable amount of a HEPES buffer, and a HEPES buffer containing a fluorescent calcium indicator (Fura-2 AM) is further added.
After incubated at 27 to 37° C. for 30 to 60 minutes, an extracellular fluorescent indicator is removed, and this is finally replaced with a suitable amount of a HEPES buffer, and is allowed to stand at room temperature for 10 to 20 minutes. By adding thereto a sweet taste substance at a particular concentration or a solution of a sweet taste substance and a substance to be tested, taste stimulation is performed at room temperature. In the fluorescent indicator Fura-2 (excitation wavelength: 340 nm/380 nm, fluorescent wavelength: 510 nm), a fluorescent intensity of excitation at 340 nm is increased, and a fluorescent intensity of excitation at 380 nm is reduced, when a calcium ion concentration is increased.
Cells loaded with Fura-2 AM were excited at 340 nm and 380 nm, and a fluorescent image observed at 510 nm was taken using a fluorescent microscope and a CCD camera. While the image was taken, Aspartame at a final concentration of 10 mM was administered to cells and, thereafter, the image was continuously taken. From the field of the taken image, 100 cells were randomly selected, and the response cell number was counted.
Cells loaded with Fura-2 AM were excited at 340 nm and 380 nm, and a fluorescent image observed at 510 nm was taken using a fluorescent microscope and a CCD camera. While the image was taken, Aspartame at each final concentration of 0.1 mM, 0.5 mM, 1 mM, 2 mM and 5 mM was administered to cells and then the image was continuously taken.
Cells loaded with Fura-2 AM were excited at 340 nm and 380 nm, and a fluorescent image observed at 510 nm was taken by using a fluorescent microscope and a CCD camera. While the image was taken, Sucrose at each final concentration of 20 mM, 50 mM, 100 mM, 200 mM, 500 mM and 1 M was administered to cells and then the image was continuously taken.
Cells loaded with Fura-2 AM were excited at 340 nm and 380 nm, and a fluorescent image observed at 510 nm was taken by using a fluorescent microscope and a CCD camera. While the image was taken, sucrose at final concentration of 500 mM was administered to cells and then the image was continuously taken.

[3] = target: T1, human sweet taste receptor (hT1R2+hT1R3); assay: Automated fluorescent calcium imaging (Fluo-4 AM, FlexStation 3) of cultured cell strain (A); format: cell-based; parameters: The sweet taste receptor subunits T1R2 and T1R3 include an entire part of each subunit; remark: listed apart in the source

Change amount of fluorescent intensity (ΔF) ([1]; saccharin 0.04 mM, Average ± S.E., n = 2): 4.0 ± 0.8
Change amount of fluorescent intensity (ΔF) ([1]; saccharin 0.08 mM, Average ± S.E., n = 2): 8.0 ± 0.6
Change amount of fluorescent intensity (ΔF) ([1]; saccharin 0.16 mM, Average ± S.E., n = 2): 11.1 ± 1.3
Change amount of fluorescent intensity (ΔF) ([1]; saccharin 0.31 mM, Average ± S.E., n = 2): 18.7 ± 2.4
Change amount of fluorescent intensity (ΔF) ([1]; saccharin 0.63 mM, Average ± S.E., n = 2): 26.1 ± 4.0
Change amount of fluorescent intensity (ΔF) ([1]; saccharin 1.25 mM, Average ± S.E., n = 2): 25.7 ± 1.1
Change amount of fluorescent intensity (ΔF) ([1]; saccharin 2.50 mM, Average ± S.E., n = 2): 25.6 ± 0.2
Change amount of fluorescent intensity (ΔF) ([1]; saccharin 5 mM, Average ± S.E., n = 2): 21.8 ± 1.2
SMILES: O=C1NS(=O)(=O)c2ccccc21 [saccharin]

Change amount of fluorescent intensity (ΔF) ([1]; D-phenylalanine 1.5 mM, Average ± S.E., n = 2): 4.0 ± 0.8
Change amount of fluorescent intensity (ΔF) ([1]; D-phenylalanine 2.2 mM, Average ± S.E., n = 2): 4.8 ± 0.6
Change amount of fluorescent intensity (ΔF) ([1]; D-phenylalanine 3.3 mM, Average ± S.E., n = 2): 4.5 ± 0.6
Change amount of fluorescent intensity (ΔF) ([1]; D-phenylalanine 4.9 mM, Average ± S.E., n = 2): 5.4 ± 0.3
Change amount of fluorescent intensity (ΔF) ([1]; D-phenylalanine 7.4 mM, Average ± S.E., n = 2): 8.1 ± 0.7
Change amount of fluorescent intensity (ΔF) ([1]; D-phenylalanine 11.1 mM, Average ± S.E., n = 2): 12.1 ± 0.2
Change amount of fluorescent intensity (ΔF) ([1]; D-phenylalanine 16.7 mM, Average ± S.E., n = 2): 18.2 ± 0.9
Change amount of fluorescent intensity (ΔF) ([1]; D-phenylalanine 25 mM, Average ± S.E., n = 2): 25.2 ± 1.2
SMILES: N[C@H](Cc1ccccc1)C(=O)O [D-phenylalanine]

Change amount of fluorescent intensity (ΔF) ([1]; sucrose 3.1 mM, Average ± S.E., n = 6): 10.8 ± 2.0
Change amount of fluorescent intensity (ΔF) ([1]; sucrose 6.3 mM, Average ± S.E., n = 6): 13.8 ± 2.9
Change amount of fluorescent intensity (ΔF) ([1]; sucrose 12.5 mM, Average ± S.E., n = 6): 14.9 ± 2.7
Change amount of fluorescent intensity (ΔF) ([1]; sucrose 25 mM, Average ± S.E., n = 6): 17.0 ± 2.6
Change amount of fluorescent intensity (ΔF) ([1]; sucrose 50 mM, Average ± S.E., n = 6): 29.2 ± 2.3
Change amount of fluorescent intensity (ΔF) ([1]; sucrose 100 mM, Average ± S.E., n = 6): 40.4 ± 2.5
Change amount of fluorescent intensity (ΔF) ([1]; sucrose 200 mM, Average ± S.E., n = 6): 35.4 ± 3.2
SMILES: OC[C@H]1O[C@@](CO)(O[C@H]2O[C@H](CO)[C@@H](O)[C@H](O)[C@H]2O)[C@@H](O)[C@@H]1O [Sucrose, sucrose]
sweet taste response (fluorescent images) [2]: concentration-dependent sweet taste response was observed

Change amount of fluorescent intensity (ΔF) ([1]; NHDC 0.003 mM): 5.8
Change amount of fluorescent intensity (ΔF) ([1]; NHDC 0.01 mM): 11.2
Change amount of fluorescent intensity (ΔF) ([3]; NHDC 0.03 mM): 9.6
Change amount of fluorescent intensity (ΔF) ([3]; NHDC 0.1 mM): 20.9
Change amount of fluorescent intensity (ΔF) ([3]; NHDC 0.3 mM): 26.7
Change amount of fluorescent intensity (ΔF) ([3]; NHDC 1 mM): 41.8
Change amount of fluorescent intensity (ΔF) ([3]; NHDC 3 mM): 66.8
Change amount of fluorescent intensity (ΔF) ([3]; NHDC 10 mM): 78.6
SMILES: COc1ccc(CCC(=O)c2c(O)cc(O[C@@H]3O[C@H](CO)[C@@H](O)[C@H](O)[C@H]3O[C@@H]3O[C@@H](C)[C@H](O)[C@@H](O)[C@H]3O)cc2O)cc1O [NHDC, neohesperidin dihydrochalcone]
